According to US10376540B2, “Tungsten (VI) salts used to treat infertility, for stimulating fertility and normal reproduction in a non-diabetic female mammal, and for improving the effectiveness of assisted reproduction techniques” (OXOLIFE, S.L., priority 2014, dated 2019):
Where “and” joins values, the source holds several entries; their conditions need not be identical. Equal values may be shown once.

What was measured:
[1] = tested on: HEC1-A endometrial cell line and JEG-3 trophectoderm cell line; assay: In vitro endometrial embryonic adhesion study (JEG-3 spheroids on HEC-1A monolayer); format: cell-based, human; settings: for Absolute adhesion rate / Absolute adhesion rate, Mean: HEC-1A treated 24 hours (sodium tungstate 10 μM); for Absolute adhesion rate: adhesion after 60 minutes; for Embryonic adhesion versus untreated HEC-1A cells (in words): HEC-1A treated 24 hours; for Absolute adhesion rate, Mean: Mean of Exp 1-3, baseline 30%
Source text: An “in vitro” human-human embryonic adhesion model made up the HEC1-A endometrial cell line and the JEG-3 trophectoderm cell line was used to determine the effect of sodium tungstate on endometrial receptivity.
The use of in vitro models, and specifically the model based on the mentioned cell lines (HEC-1A and JEG-3), is considered a standard model for studying endometrial receptivity and particularly the adhesion the trophoblast to the endometrium (Fertility and Sterility 2011; 96, 522-529; Methods in Enzymology 2006; 420:3-18 or FASEB J. 201; 26:3715-3727).
The JEG-3 cell line which simulates the trophectoderm cells of a human embryo are cells that grow in monolayers in laboratory using low adherence plates and are capable of forming spheroids simulating the human embryo; this is one of the most widely used cell lines for conducting in vitro embryonic adhesion assay.
The cell lines were commercially purchased (American Type Culture Collection (ATCC); Rockville, Md., USA) for conducting the endometrial embryonic adhesion experiments. They were thawed and expanded in 4 passes for obtaining sufficient cells to perform all the assays.
The HEC1-A cells were plated in 24-well plates and cultured with McCoy 5A culture medium supplemented with 10% fetal bovine serum and 0.1% antibiotics (fungizone and penicillin), until reaching 90% confluence. After reaching the confluence, there was added to the culture medium sodium tungstate at a final concentration of 10 μM, as well as Withaferin A (as a control, a compound that prevents embryonic adhesion) or culture medium (baseline adhesion data), without any additional component, for 24 hours.
The JEG-3 cells were plated in low adherent plates with Eagle's minimal essential medium (EMEM) culture medium supplemented with 10% fetal bovine serum and 0.1% antibiotics (fungizone and penicillin). Twenty-four hours before the adhesion assay, the JEG-3 trophoblast spheroids were formed from this culture. To that end, JEG-3 cells in the medium described above were suspended in an Erlenmeyer flask under stirring at a concentration of 6×10^5 cells/6 ml. The resulting spheroids were collected for the adhesion assay.
For the adhesion assay, 24 hours after culturing the HEC-1A cells with culture medium adding sodium tungstate, Withaferin A or without adding any treatment, the culture medium was changed with fresh culture medium without treatments under study. The trophectoderm spheroids were added onto the monolayer of HEC-1A cells, placing 6 to 10 spheroids per well. The adhesion of the spheroids was measured after 60 minutes, counting spheroid that was floating in the culture medium as non-adhered spheroid and spheroid that was not floating as adhered spheroid. The examination was conducted with an inverted microscope (Nikon Diaphot 300; Nikon Corp., Tokyo, Japan). The assay was conducted in triplicate.

[2] = tested on: rats with diabetes and insulinopenia induced by streptozotocin; settings: streptozotocin-diabetic females after prolonged treatment (10 weeks), mated with healthy males; non-diabetic 100%; cited from earlier work
IRS2−/− female mice [3] = assay: Implantation and pregnancy study after cross-breeding with IRS2wt male mice; format: in vivo
Description: (§1) Ten IRS2^−/− female mice of ages comprised between 6 and 8 weeks. Six “wild-type” (IRS2^wt) male mice of ages comprised between 6 and 8 weeks. The female and male mice were housed separately in normal conditions, i.e., a 12 h light/darkness cycle and controlled temperature and humidity. The animals were fed at will (also referred to as ad libitum) with a standard feed diet.
(§2) After an acclimatization period, the IRS2^−/− female mice were housed in groups of 4-6 mice/cage. Tungstate salt-free drinking water was administered to the animals during the pre-treatment phase (2 weeks).
(§3) Sodium tungstate was administered in the drinking water (ad libitum) by means of a solution of 2 mg/ml of sodium tungstate dihydrate (marketed by Carlo Erba) in distilled water after the pre-treatment phase (day 0 of treatment) and up to 4 weeks before sacrificing the animals. The daily dose of sodium tungstate ingested by the mice was about 180 mg/kg of body weight.
After the first three weeks of treatment, the IRS2^−/− female mice were housed in cages in pairs together with a IRS2^wt male mouse continuously.
The mice were observed daily to look for signs of pregnancy or birth.
After 4 weeks, the male mice were exchanged between the cages and they were kept therein for another 4 weeks.
The administration of tungstate was maintained for 8 weeks in which male and female mice were housed together. After these 8 weeks, treatment was withdrawn and the male and female mice were housed together for 4 additional weeks.
After this period, the female mice were sacrificed and biopsy was carried out to look for indications of pregnancy.
After the cross-breeding period of the method of section B, the female mice were sacrificed and biopsies were carried out to look for indications of pregnancy.

IRS2−/− female mice [4] = assay: Ovulation study: phase of the estrous cycle in vaginal smears (Papanicolau); format: in vivo; set-up: key to Phase of the estrous cycle in vaginal smear: A: Anestrus; D: Diestrus; P: Proestrus; E: Estrus; M: Metestrus; settings: for Phase of the estrous cycle in vaginal smear: individual IRS2−/− female mice, dihydrate
Source text: The mouse model used for determining the activity of tungsten (VI) salts for favoring normal reproduction and fertility is an Irs2 gene knock-out mouse, IRS2^−/−[Burks et. al., “IRS-2 pathways integrate female reproduction and energy homeostasis”, Nature, 2000, vol. 407, pp. 377-382]. Irs2 gene deletion translates into a clear sexual dimorphism in relation to fertility and carbohydrate metabolism.
The male mice of this model have insulin resistance and severe hyperglycemia that started at an early age. In contrast, the female mice remain relatively euglycemic at an early age and develop slight insulin resistance which remains until a later age (4-5 months). IRS2^−/− female mice at an early age, about 10 weeks old, show a low follicular development and persistent anovulation, accompanied by the absence of estrous cycle in most mice. The pregnancy rate in IRS2^−/− female mice is 9% compared to the rate of 100% in IRS^wt (IRS-2^−/− wild type) female mice. Given that female mice at these ages remain euglycemic and that they only develop slight insulin resistance, the profound impairment in fertility is not a direct result of anomalies in glucose metabolism.
as §1, §2, §3
During the pre-treatment period and during the first 3 weeks of treatment, vaginal smears were performed in 6 randomly chosen female mice on days −8; −5; −2; −1; 7; 8; 14; 15 and 22, to determine the phase of the estrous cycle they were in.
Between […] of saline solution was introduced into the vagina of the mice with a Pasteur pipette. Vaginal exudate was collected with the same pipette and spread on a slide. Once air-dried, it was fixed and stained with the Papanicolau technique.
The Papanicolau technique comprises staining the vaginal smears fixed on the slide in the following manner: • 10 immersions in 50% v/v alcohol; • Immersing in Harris hematoxylin solution for 3 minutes; • Rinsing with running water; • 10 immersions in acid alcohol (1% hydrochloric acid); • Rinsing with running water; • 10 immersions in 95% v/v alcohol; • Immersing in OG-6 solution for 30 seconds; • 10 immersions in 96% v/v alcohol; • Immersing in eosin solution for 1 minute; • 10 immersions in 96% v/v alcohol; • 10 immersions in 86% v/v alcohol; and • 10 immersions in xylol
The preparations were analyzed by trained staff using a coding in a single-blind manner for eliminating observer bias.
The samples were identified in the following phases: diestrus, proestrus, estrus, metestrus, anestrus or non-evaluable. The cyclical nature of the four phases in periods of 4 to 6 days are indicative of a normal estrous cycle, whereas the absence of this cyclical nature and the persistence in anestrus, diestrus or proestrus phases are indicative of the absence of estrous cycle.

[5] = individual treated IRS2−/− female mice, dihydrate

CC1=C(CO)C(=O)O[C@@H]([C@@H](C)[C@H]2CC[C@H]3[C@@H]4C[C@H]5O[C@]56[C@@H](O)C=CC(=O)[C@]6(C)[C@H]4CC[C@]23C)C1 [Withaferin A, reference compound]
Absolute adhesion rate ([1]; Exp 1, baseline 12%): 0% | Absolute adhesion rate ([1]; Exp 2, baseline 48%): 0% | Absolute adhesion rate ([1]; Exp 3, baseline 31%): 0% | Embryonic adhesion versus untreated HEC-1A cells (in words) [1]: No adhesion whatsoever | Absolute adhesion rate, Mean [1]: 0%

O.O.[Na+].[Na+].[O]=[W](=[O])([O-])[O-] [sodium tungstate, sodium tungstate dihydrate]
Percentage of births with respect to the number of positive curettages [2]: 66% | Pregnancy rate (IRS2−/− female mice [3]; IRS2−/− female mice treated with tungstate (untreated 9%)): 80% | Pregnancy (IRS2−/− female mice [3]; individual treated IRS2−/− female mice, 2 mg/ml in drinking water, cross-bred with IRS2wt males, dihydrate): YES | Number of embryos implanted or young born (embryos implanted) (IRS2−/− female mice [3]; [5]): 7 embryos (3×) and 6 embryos | Number of embryos implanted or young born (young born) (IRS2−/− female mice [3]; [5]): 3 young and 8 young (2×) and 1 young | Mean of young/implanted embryos per pregnant female mouse (IRS2−/− female mice [3]; treated IRS2−/− female mice): about 5 | Phase of the estrous cycle in vaginal smear (IRS2−/− female mice [4]; day 7 of treatment, 2 mg/ml sodium tungstate dihydrate in drinking water (about 180 mg/kg/day)): M and E (4×) and E-M | Phase of the estrous cycle in vaginal smear (IRS2−/− female mice [4]; day 8 of treatment, 2 mg/ml in drinking water): M and E-M (3×) and E (2×) | Phase of the estrous cycle in vaginal smear (IRS2−/− female mice [4]; day 14 of treatment, 2 mg/ml in drinking water): E and E-M (3×) and D | Phase of the estrous cycle in vaginal smear (IRS2−/− female mice [4]; day 15 of treatment, 2 mg/ml in drinking water): D and E (2×) and M (2×) and A | Phase of the estrous cycle in vaginal smear (IRS2−/− female mice [4]; day 22 of treatment, 2 mg/ml in drinking water): D (2×) and A (2×) and M and P | Analyzed mice with recovery of the estrous cycle (IRS2−/− female mice [4]; on the seventh day of treatment, infertile, non-diabetic IRS2−/− female mice): 100% | Absolute adhesion rate ([1]; Exp 1, baseline 12%): 31% | Absolute adhesion rate ([1]; Exp 2, baseline 48%): 65% | Absolute adhesion rate ([1]; Exp 3, baseline 31%): 35% | Embryonic adhesion versus untreated HEC-1A cells (in words) [1]: higher percentage of embryonic adhesion | Absolute adhesion rate, Mean [1]: 44%
